In patent US20220226480A1, “LIPID CONJUGATE PREPARED FROM SCAFFOLD MOIETY” (Integrated Nanotherapeutics Inc., priority 2019, published 2022):

What was measured:
[1] = Particle size and polydispersity of LNP containing pro-drug (dynamic light scattering); type: physicochemical; parameters: Size of LNP: unit not given here
Procedure: (§1) LNPs were prepared by dissolving 1,2-Distearoyl-sn-glycero-3-phosphocholine (DSPC) or 1,2-dimyristoyl-sn-glycero-3-phosphocholine (DMPC), cholesterol and 1,2-Distearoyl-sn-glycero-3-phosphoethanolamine-Poly(ethylene glycol) (PEG-DSPE) in ethanol. DSPC, DMPC and PEG-DSPE were purchased from Avanti Polar Lipids (Alabaster, Ala.), and cholesterol was obtained from Sigma (St Louis, Mo.).
(§2) Drug-lipid-conjugates INT-D034, INT-D035, INT-D045, INT-D046, INT-D047, INT-D048, INT-D049, INT-D050, INT-D051, INT-D053, INT-D060, INT-D061, INT-D062, INT-D063, INT-D083, INT-D085, INT-D086, INT-D088 and INT-D089 (see FIG. 3 and Example 7 for structures) were dissolved in isopropanol or THF. LNP were prepared by rapidly mixing DSPC or DMPC, cholesterol, drug-lipid conjugate, and PEG-DSPE (in molar ratio of 49/40/10/1) with phosphate-buffered saline (PBS) using a cross-junction mixer. Formulations were dialyzed against PBS to remove residual ethanol. In formulation$ with more than 10 mol % drug-lipid conjugates, the amount of phospholipid or cholesterol was reduced accordingly.
(§3) The physiochemical properties of the LNPs prepared as described above were subsequently characterized. Particle size was determined by dynamic light scattering using a Malvern Zetasizer Nano ZS (Malvern, UK) following buffer exchange into phosphate-buffered saline. Number-weighted size and distribution date was used. Lipid concentrations were determined by measuring total cholesterol using the Cholesterol E enzymatic assay kit from Wako Chemicals USA (Richmond, Va.). The morphology of LNP formulations containing LD-DEX was analyzed by cryogenic-transmission electron microscopy (cryoTEM).

[2] = Encapsulation efficiency / incorporation of pro-drug in LNP; type: physicochemical
Procedure: as §1, §2, §3

J774.2 = experiment: Pro-inflammatory cytokine expression in LPS-stimulated macrophage cell line J774.2 (qRT-PCR); type: cell-based; details: LNP formulation at doses equivalent to 1, 3 or 10 μM dexamethasone, 24 hours, 10 ng/mL LPS, versus control LNP
Procedure: (§4) The graph depicts the expression of the cytokines IL-1β (top), TNFα (middle) and IL-6 (bottom) after 24 hours of incubation of the cells with the above components at doses equivalent to 1, 3 or 10 μM of dexamethasone, followed by stimulation by 10 ng/mL lipopolysaccharide (LPS) overnight. Cytokine levels were measured by qRT-PCR and data was normalized to cells treated with control LNP without drug-lipid conjugates.
(§5) Cultured macrophage cell lines J774.2 (FIG. 8) and Raw264.7 (FIG. 9A) were incubated with immunostimulant LPS and LNP with or without ricinoleyl-dexamethasone conjugate INT-D034/INT-D035. After 24 hours, cells were harvested and were analyzed for expression of pro-Inflammatory cytokines IL1β, TNFα and IL-6. RNA was isolated from the cells and levels of pro-inflammatory cytokines ILIβ, TNFα and IL6 were determined by qRT-PCR.

Raw264.7 = experiment: Pro-inflammatory cytokine expression in LPS-stimulated Raw264.7 cells (qRT-PCR); type: cell-based; details: LNP formulation at doses equivalent to 1, 3 or 10 μM dexamethasone, 24 hours, 10 ng/mL LPS, versus control LNP
Procedure: as §4, with “IL-10” for “IL-1β”, “LPS” for “lipopolysaccharide (LPS)”
as §4, with “IL-10” for “IL-1β (top), TNFα (middle) and IL-6 (bottom)”, “1” for “1, 3”, “LPS” for “lipopolysaccharide (LPS)”
as §5

CD4+ T cells = experiment: Mixed lymphocyte reaction (MLR) assay, BMDCs with allogeneic CD4+ T cells; type: cell-based, mice; details: LNP containing 10-99 mol % conjugate; BMDCs treated 48 hours, LPS 24 hours; 5:1 or 10:1 T-to-BMDC ratio; 3 days; flow cytometry
Procedure: Bone marrow derived dendritic cells (BMDCs) from C57Bl/6 male mice were first treated with LNP containing various mol % of the dexamethasone or calcitriol conjugates for 48 hours and then activated by incubation with LIPS for 24 hours. They were then harvested and mixed with CD4+ T cells isolated from Balb/cJ male mice (Jackson Laboratories) at 5:1 or 10:1 T-to-BMDC ratio.
Dexamethasone and calcitriol can tolerize antigen presenting cells (APCs). […] Bone marrow derived dendritic cells (BMDCs) from C57BI/6 male mice (Charles River) were first treated with LNP containing various mol % of dexamethasone or calcitriol conjugates for 48 hours and then activated by incubation with LPS for 24 hours. They were then harvested and mixed with CD4+ T cells isolated from Balb/cl male mice (Jackson Laboratories) at 5:1 or 10:1 T-to-BMDC ratio. The levels of T cells proliferation after 3 days were quantified using flow cytometry.

[3] = LNP containing 10 mol % conjugate, primary PC-lipid DMPC
[4] = LNP formulations containing pro-drugs (10 mol %, FIG. 6A)
[5] = LNP, pro-drug concentration 10 %
[6] = LNP, pro-drug concentration 20 %
[7] = LNP, pro-drug concentration 30 %
[8] = LNP, pro-drug concentration 40 %
[9] = LNP, pro-drug concentration 50 %
[10] = LNP, pro-drug concentration 60 %
[11] = LNP, pro-drug concentration 80 %
[12] = LNP, pro-drug concentration 95 %
[13] = LNP, pro-drug concentration 98 %
[14] = LNP, pro-drug concentration 99 %
[15] = all LNP formulations at 0 to 99 mol % pro-drug concentration

## CCCCCC[C@H](C/C=C\CCCCCCCCOC(=O)CCC(=O)OCC(=O)[C@@]1(O)[C@H](C)C[C@H]2[C@@H]3CCC4=CC(=O)C=C[C@]4(C)[C@@]3(F)[C@@H](O)C[C@@]21C)OC(=O)CCCCC [INT-D034, 2-((8S,9R,10S,11S,13S,14S,16R,17R)-9-Fluoro-11,17-dihydroxy-10,13,16-trimethyl-3-oxo-6,7,8,9,10,11,12,13,14,15,16,17-dodecahydro-3H-cyclopenta[a]57ctadic57rene-17-yl)-2-oxoethyl ((R,Z)-12-(hexanoyloxy)57ctadic-9-en-1-yl) succinate]
[1]; [3]
  Particle Diameter (nm): 72 nm
  Polydispersity index (PDI): 0.02
[1]; [4]
  PdI: 0.08
  Size of LNP: 70
[1]; [5]
  PdI: 0.064
  Size (nm): 48 nm
[1]; [6]
  PdI: 0.068
  Size (nm): 45 nm
[1]; [7]
  PdI: 0.082
  Size (nm): 43 nm
[1]; [8]
  PdI: 0.100
  Size (nm): 41 nm
[1]; [9]
  PdI: 0.085
  Size (nm): 32 nm
[1]; [10]
  PdI: 0.022
  Size (nm): 48 nm
[1]; [11]
  PdI: 0.025
  Size (nm): 87 nm
[1]; [12]
  PdI: 0.082
  Size (nm): 29 nm
[1]; [13]
  PdI: 0.014
  Size (nm): 52 nm
[1]; [14]
  PdI: 0.011
  Size (nm): 86 nm
[1]; [15]
  Polydispersity index (PDI): ≤ 0.1
  particle diameter: 29-87 nm
[2]; [3]
  Encapsulation Efficiency (%): 100%
[2]; [4]
  % Entrapment: 99%
[2]; [15]
  encapsulation efficiencies: high
J774.2
  levels of pro-inflammatory cytokines (IL1β, TNFα, IL-6): reduced levels of pro-inflammatory cytokines in a dose-dependent manner
Raw264.7
  levels of pro-inflammatory cytokines (IL1β, TNFα, IL-6): reduced levels of pro-inflammatory cytokines in a dose-dependent manner
CD4+ T cells
  allogeneic T-cell proliferation: able to suppress allogeneic T-cell proliferation
